Measurements as given in PMC3527569, “Anti-Inflammatory and Vasoprotective Activity of a Retroviral-Derived Peptide, Homologous to Human Endogenous Retroviruses: Endothelial Cell Effects” (PLoS ONE, 2012).
Where a SMILES comes first, the peptide text is derived from it. Bridges are numbered along the chain shown (N, C = ends). Roman numbers before positions name the chains, in order.

Experiments:
HUVEC [1] = assay: Staurosporine-induced apoptosis in HUVEC (Cell Death Detection ELISA); type: cell-based, human; details: for protection against staurosporine-induced apoptosis: 50 µM peptide 3 h before staurosporine (500 nM), measured 18 h after staurosporine (Figure 11B)
Protocol: Apoptosis was measured in HUVEC using the Cell Death Detection ELISA^PLUS kit (Roche Diagnostics; Indianapolis, IN) according to the manufacturer's instructions. This assay is based on a quantitative sandwich-enzyme-immunoassay using mouse monoclonal antibodies directed against both DNA and histones, respectively. It allows the specific determination of mono- and oligonucleosomes in the cytoplasmic fraction of cell lysates (apoptosis) and in the supernatant of dying cells (necrosis). The apoptotic index (AI) was calculated as
where treatment refers to use of a known apoptosis- or necrosis-inducing agent (staurosporine, TNF-α).

human blood monocytes = assay: [125I]-MN20054 binding/uptake by human blood monocytes; details: 100-fold molar excess unlabeled peptide, 60 min, 37°C, PBS 0.5% BSA pH 7.5, triplicate, gamma counting (Figure 6A)
Protocol: (Perkin Elmer; Boston, MA) using the chloramine-T method. Human blood monocytes (purified by adherence to plastic; 10^6/0.2 ml in PBS with 0.5% BSA, pH 7.5 in 12×75 mm polypropylene tubes) were incubated in triplicate at 37°C for 60 min with 40 pmol [^125I]-MN20054 (∼20 Ci/mmol) in the presence or absence of a 100-fold molar excess of unlabeled peptide. Tubes were shaken gently during the incubation. The contents of each tube were layered onto a layer of 0.8 ml of 10% sucrose in polypropylene Eppendorf tubes and the tubes centrifuged for 5 min at 8,000×g to separate cell-associated from free ligand. The tubes were then snap-frozen in a dry-ice/acetone bath and the bottom of the tube containing the cell pellet cut off and then counted in a gamma-scintillation spectrophotometer. In studies to determine how much of the uptake was due to endocytosis, binding/uptake was performed as described above with the exception that half of the monocytes were pretreated for 30 min at 37°C with cytochalasin B (10 µg/ml; Sigma; St. Louis, MO).

IL-1β = assay: LPS-induced IL-1β release by human PBMC (sandwich ELISA); type: cell-based; details: 18-24 h, peptide 10 nM-100 µM in triplicate, IC50 estimated from graph
Protocol: Cytokine Assays: One-hundred µL of PBMC (2 x 10^6/ml in Complete Medium) were added to each well of a flat-bottom, 96-well tissue culture plate. To each well was then added 50 µL of media or peptide (4X desired final concentration; in Complete Medium) and 50 µL of lipopolysaccharide (LPS; S. typhosa; Sigma, St. Louis, MO; 400 ng/ml Complete Medium). Each peptide was tested in triplicate at 5 log10 concentrations ranging from 100 µM to 10 nM. Plates were incubate 18-24 h at 37°C in 5% humidified CO2. Plates were then centrifuged and 100 µL of supernatant removed from each well and stored frozen at -80°C until assayed. Cytokines (TNF-α, IL-1β, IL-6, GM-CSF) were measured by sandwich ELISA assays (R & D Systems; Minneapolis, MN) using the manufacturer’s instructions. The released cytokine concentration was determined from a standard curve using recombinant cytokine provided with each kit.

Chemotaxis = assay: Monocyte and neutrophil chemotaxis to FMLP (micro-chemotaxis chamber); type: cell-based, human; details: cells pre-incubated 60 min at 37°C with peptide (10 nM-100 µM), FMLP 10^-8 or 10^-9 M, 90 min, triplicate
Protocol: Monocyte and Neutrophil Chemotaxis: For monocyte chemotaxis, PBMC were prepared as described above but washed and resuspended to 2 x 10^6/ml in HBSS (10 mM HEPES, 0.5% BSA [low-endotoxin; Sigma, St. Louis, MO], pH 7.0). The percentage of monocytes in the cell preparation was determined by myeloperoxidase staining of fixed, cytospin-prepared slides and usually ranged between 15-25%. For neutrophil chemotaxis, neutrophils were prepared as described above and routinely contained 97-99% neutrophils. Effects of test materials on chemotaxis were measured using 48-well micro-chemotaxis chambers (Neuro-Probe; Cabin John, MD). Briefly, to 450 µL of cell suspension in a polypropylene centrifuge tube was added 50 µL of buffer or test material. Each sample was tested in triplicate. The tubes were then incubated for 60 min at 37°C in a shaking water bath. […] The stained filters were mounted on slides and the number of cells migrating though the filters determined under 600X magnification for 5 fields/well. Inhibition of chemotaxis was determined using that slide for which the positive control (untreated cells; either 10^-8 or 10^-9 M FMLP) gave the strongest response and was calculated in the following manner: […]

HUVEC [2] = assay: [125I]-MN20054 binding/uptake by HUVEC; design: species or system human; details: 100-fold excess unlabeled peptide, 60 min; for inhibition of association of [125I]-MN20054 with HUVEC: 37°C, triplicate wells (Figure 6C)
Protocol: For binding/uptake studies on endothelial cell, HUVEC were grown to confluence in 12-well tissue culture plates. Forty pmol of [^125I]-MN20054 (∼20 Ci/mmol) in PBS with 0.5% BSA, pH 7.5, was added in a volume of 1.0 ml in the presence or absence of a 100-fold excess of the indicated competitor. The plates were allowed to incubate for 1 h at 37°C on a rocking platform and the wells were aspirated and washed 3X with 2.0 ml of ice-cold PBS/BSA. One ml of 1.0 N NaOH was added to each well for 30 min at RT to solubilize the cells and then 0.9 ml was removed from each well and counted in a gamma scintillation spectrophotometer.

IL-6 = assay: Plasma IL-6 in mouse carrageenan DIC model (ELISA); type: in vivo, mouse (CD-1); details: 1 mg (245 nmol) i.p. 18 h before carrageenan, peak at 4 h
Protocol: Groups of 10 male CD-1 mice were injected i.p. with 0.25 ml of either vehicle (PBS) or peptide in vehicle at varying times prior to the i.p. injection of 1.0 ml of carrageenan (0.45% [w/v] in PBS; Sigma). In experiments where serum cytokine levels were determined, groups of 5 mice were euthanized at 1-, 2-, 4-, 8-, and 24-h post injection of carrageenan, blood collected by cardiac puncture into heparinized syringes, and the resultant plasma stored at −80°C until assayed by ELISA. […] At 1-, 2-, 4-, and 24-h post injection of carrageenan, five mice from each group were euthanized and heparinized blood samples collected from the heart using heparinized syringes for subsequent determinations of WBC (white blood cell) counts, RBC (red blood cell) counts, or PLT (platelet) counts.
Cytokine measurements of serum samples from MN10021-treated mice were performed by sandwich ELISA assays (R & D systems) according to the manufacturer’s instructions for use of its kits with sera samples.

| Molecule | protection against staurosporine-induced apoptosis (HUVEC [1]) | effect of L-NAME pretreatment on protective effect against staurosporine-induced apoptosis (HUVEC [1]; 2 mM L-NAME 5 h, then 50 µM peptide 3 h, staurosporine 500 nM ON (Figure 12)) | maximal protection against staurosporine-induced apoptosis (HUVEC [1]; peptide added 3 h before staurosporine, up to 50 µM peptide, quadruplicate wells (Figure 10A, 10C)) [%] | inhibition of binding or uptake of [125I]-MN20054 by monocytes (human blood monocytes) [%] | IC50 (IL-1β) [µM] | IC50 (Chemotaxis) [µM] | inhibition of binding/uptake of [125I]-MN20054 by HUVEC (HUVEC [2]; 37°C (Figure 7)) [%] | inhibition of association of [125I]-MN20054 with HUVEC (HUVEC [2]) | block of peak plasma IL-6 response (IL-6) |
| --- | --- | --- | --- | --- | --- | --- | --- | --- | --- |
| CC(C)C[C@H](NC(=O)CNC(=O)CNC(=O)[C@H](CCC(=O)O)NC(=O)[C@H](CCCCN)NC(=O)[C@H](CC(C)C)NC(=O)[C@H](Cc1ccccc1)NC(=O)[C@H](CC(C)C)NC(=O)[C@H](CC(C)C)NC(=O)[C@H](CC(=O)O)NC(=O)[C@H](CC(C)C)NC(=O)CNC(=O)[C@H](CCCNC(=N)N)NC(=O)[C@H](CCCNC(=N)N)NC(=O)[C@H](CC(N)=O)NC(=O)[C@H](CCC(N)=O)NC(=O)[C@@H](N)CC(C)C)C(=O)N[C@@H](CSSC[C@H](NC(=O)[C@H](CC(C)C)NC(=O)CNC(=O)CNC(=O)[C@H](CCC(=O)O)NC(=O)[C@H](CCCCN)NC(=O)[C@H](CC(C)C)NC(=O)[C@H](Cc1ccccc1)NC(=O)[C@H](CC(C)C)NC(=O)[C@H](CC(C)C)NC(=O)[C@H](CC(=O)O)NC(=O)[C@H](CC(C)C)NC(=O)CNC(=O)[C@H](CCCNC(=N)N)NC(=O)[C@H](CCCNC(=N)N)NC(=O)[C@H](CC(N)=O)NC(=O)[C@H](CCC(N)=O)NC(=O)[C@@H](N)CC(C)C)C(=O)O)C(=O)O [MN10021] (I: H-LQNRRGLDLLFLKEGGLC-OH / II: H-LQNRRGLDLLFLKEGGLC-OH; disulfide I:18-II:18) | significant protection | no effect | ~60 | ~65 | 17 | 0.25 | ~75 | 77% | about 50% |
| H-LGGEKLFLLDGRNQLC-OH (disulfide (positions not given here)) [MN20050] | no protective effective | – | – | < 10 | > 100 | > 100 | – | no significant inhibition | – |
